The results in this text go back to patent US20100035259A1, “BIOMARKERS AND METHODS FOR DETERMINING SENSITIVITY TO VASCULAR ENDOTHELIAL GROWTH FACTOR RECEPTOR-2 MODULATORS” (Bristol-Myers Squibb Company, priority 2007, published 2010).

For test [1], the system named is human GEO colon tumor xenograft tumor tissues. The test can be described thus: Transcriptional profiling of GEO xenograft tumors on human U133A arrays (genes in tumor tissues). The format is in vivo. Here is the method: (§1) Tumors were propagated in nude mice as subcutaneous (sc) implants using human GEO colon tumor cell lines. Tumors were maintained in nude mice by serial passage. Treated animals were checked daily for treatment related toxicity/mortality. Each group of animals was weighed before the initiation of treatment (Wt1) and then again following the last treatment dose (Wt2). The difference in body weight (Wt2-Wt1) provided an overt measure of treatment-related toxicity. […] Tumor response was determined by measurement of tumors with a caliper twice a week, until the tumors reached a predetermined target size. Animals that were distributed to various treatment and control groups during the study were eventually sacrificed to obtain tumor and blood samples for genomic and protein analysis (Table 1).
(§2) Mouse GEO xenograft tumors, treated and non-treated, were surgically removed at appropriate time points and split into two halves. One half of the tumor was mixed in a vial of 10% formalin to be used for IHC and the other half was mixed in 1.0 ml of RNAlater™ RNA Stabilization Reagent (Ambion, Inc., Austin, Tex.) held at room temperature for 30-minutes then stored at −80° C. Total RNA was extracted from the tumor samples using the RNeasy Kit™ (Qiagen, Valencia Calif.). A least 1 μg total RNA with a 260/280 ratio >1.8 by spectrophotometry (DU640 UV, Beckman Coulter, Fullerton, Calif.) was required for transcriptional profiling. Briefly, the tumor samples were homogenized in a lysis-binding solution supplied by Qiagen. An equal volume of ethanol was mixed into each sample, the mixture was passed through the filter cartridges provided, and the rest of the extraction protocol was followed (Ambion). RNA yield and quality were assessed on a standard 1% agarose gel. […] RNA samples were stored at −80° C.
(§3) Transcriptional profiling was performed on the RNA obtained from the GEO xenograft tumor samples. The Affymetrix GeneChip system (Affymetrix, Santa Clara, Calif.) was used for hybridization and scanning of the human U133A and mouse 430A arrays. Generation of cRNA followed a standard T7 amplification protocol. Total RNA was reverse-transcribed with SuperScript II™ (Gibco, Carlsbad, Calif.) in the presence of T7-(dT)24 primer to generate first strand cDNA. A second-strand cDNA synthesis was performed in the presence of DNA Polymerase I, DNA ligase, and RNase H (Gibco). The resulting double-stranded cDNA was blunt-ended using T4 DNA polymerase. This double-stranded cDNA was then transcribed into cRNA in the presence of biotin-ribonucleotides using the BioArray High Yield RNA transcript labeling kit (Enzo Life Sciences, Farmingdale, N.Y.). The amplified, biotin-labeled cRNA was purified using Qiagen RNeasy™ columns (Qiagen Sciences), quantified and fragmented at 94° C. for 35 minutes in the presence of fragmentation buffer (1×). Fragmented cRNA was hybridized to the Affymetrix U113A and 430A arrays overnight at 42° C. The arrays were then placed in the fluidics stations for staining and washing as recommended by Affymetrix protocols. The chips were scanned and raw intensity values were generated for each probe on the arrays.
(§4) 20 HG-U133A2 chips were normalized by the RMA (Robust Multi-array Analysis) method as described by R. A. Irizarry et al., Nucleic Acids Res., February 15; 31(4):e15 (2003). The same normalization was done for the 20 Mouse430A2 chips.
(§5) Differentially expressed genes were defined as: (i) FDR (false discovery rate) q value less than 0.05 when comparing specific compound treatment at single time point to the control (no treatment) at 0 time point and (ii) fold change bigger than 2 (log2Foldchange>1 or <−1) when compared specific treatment to control.
(Xenograft models place foreign cells or tissue in a host animal.)

Test [2] has as its target VEGFR-2 (Homo sapiens, UniProt P35968). Put plainly: Inhibition of VEGFR-2. The format is biochemical.
In test [3] the test system is mouse stromal tissues. Put plainly: Transcriptional profiling of GEO xenograft tumors on mouse 430A arrays (genes in mouse stromal tissues). Type of test: in vivo. Conditions: for ESM1 level: after 2 hours treatment; for expression value of ESM1 in stromal tissue: treatment at 17 Days, in comparison with the control (FIG. 1). Here is the method:
as §1, §2, §3, §4, §5

For test [4], the system named is human GEO colon tumor. Put plainly: Tumor growth in GEO colon cancer model (caliper measurement). Conditions: compared to bevacizumab. Type of test: in vivo, nude mice. How it is done:
as §1

The target of test [5] is FGFR-1 (Homo sapiens, UniProt P11362). The test can be described thus: Inhibition of FGFR-1. The format is biochemical.
Chain of FGFR-1 (P11362 22-822, species assumed): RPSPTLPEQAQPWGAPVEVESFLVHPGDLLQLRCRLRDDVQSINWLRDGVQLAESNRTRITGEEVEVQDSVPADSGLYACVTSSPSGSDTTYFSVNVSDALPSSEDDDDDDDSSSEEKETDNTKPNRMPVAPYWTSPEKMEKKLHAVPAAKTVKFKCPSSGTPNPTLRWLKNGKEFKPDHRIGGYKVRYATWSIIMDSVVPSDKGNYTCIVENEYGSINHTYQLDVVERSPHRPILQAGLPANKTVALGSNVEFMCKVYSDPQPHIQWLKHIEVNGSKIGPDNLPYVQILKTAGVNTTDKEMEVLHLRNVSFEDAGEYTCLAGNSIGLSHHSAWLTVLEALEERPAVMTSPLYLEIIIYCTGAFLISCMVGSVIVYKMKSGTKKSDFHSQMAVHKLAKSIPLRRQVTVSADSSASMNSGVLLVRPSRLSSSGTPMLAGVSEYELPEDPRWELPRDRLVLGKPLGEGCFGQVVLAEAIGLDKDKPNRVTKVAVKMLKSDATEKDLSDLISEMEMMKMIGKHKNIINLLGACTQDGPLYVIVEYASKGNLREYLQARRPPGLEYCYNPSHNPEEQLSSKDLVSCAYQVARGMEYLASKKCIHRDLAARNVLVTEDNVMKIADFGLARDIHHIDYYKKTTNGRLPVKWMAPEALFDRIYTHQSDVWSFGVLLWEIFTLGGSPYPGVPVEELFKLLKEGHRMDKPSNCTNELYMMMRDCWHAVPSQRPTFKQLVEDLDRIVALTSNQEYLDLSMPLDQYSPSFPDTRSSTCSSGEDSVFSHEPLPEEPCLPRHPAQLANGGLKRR
Test [6] addresses FGFR-2 (Homo sapiens, UniProt P21802). Put plainly: Inhibition of FGFR-2. The format is biochemical.
[7] abbreviates: tumor xenografts, after 17 days.
The mark [8] stands for this setting: xenograft tumor tissues, 17 days (FIG. 4).
Where [9] appears, read: mouse stroma tissue, 17 days time point.

Chain of VEGFR-2 (P35968 20-1356, species assumed): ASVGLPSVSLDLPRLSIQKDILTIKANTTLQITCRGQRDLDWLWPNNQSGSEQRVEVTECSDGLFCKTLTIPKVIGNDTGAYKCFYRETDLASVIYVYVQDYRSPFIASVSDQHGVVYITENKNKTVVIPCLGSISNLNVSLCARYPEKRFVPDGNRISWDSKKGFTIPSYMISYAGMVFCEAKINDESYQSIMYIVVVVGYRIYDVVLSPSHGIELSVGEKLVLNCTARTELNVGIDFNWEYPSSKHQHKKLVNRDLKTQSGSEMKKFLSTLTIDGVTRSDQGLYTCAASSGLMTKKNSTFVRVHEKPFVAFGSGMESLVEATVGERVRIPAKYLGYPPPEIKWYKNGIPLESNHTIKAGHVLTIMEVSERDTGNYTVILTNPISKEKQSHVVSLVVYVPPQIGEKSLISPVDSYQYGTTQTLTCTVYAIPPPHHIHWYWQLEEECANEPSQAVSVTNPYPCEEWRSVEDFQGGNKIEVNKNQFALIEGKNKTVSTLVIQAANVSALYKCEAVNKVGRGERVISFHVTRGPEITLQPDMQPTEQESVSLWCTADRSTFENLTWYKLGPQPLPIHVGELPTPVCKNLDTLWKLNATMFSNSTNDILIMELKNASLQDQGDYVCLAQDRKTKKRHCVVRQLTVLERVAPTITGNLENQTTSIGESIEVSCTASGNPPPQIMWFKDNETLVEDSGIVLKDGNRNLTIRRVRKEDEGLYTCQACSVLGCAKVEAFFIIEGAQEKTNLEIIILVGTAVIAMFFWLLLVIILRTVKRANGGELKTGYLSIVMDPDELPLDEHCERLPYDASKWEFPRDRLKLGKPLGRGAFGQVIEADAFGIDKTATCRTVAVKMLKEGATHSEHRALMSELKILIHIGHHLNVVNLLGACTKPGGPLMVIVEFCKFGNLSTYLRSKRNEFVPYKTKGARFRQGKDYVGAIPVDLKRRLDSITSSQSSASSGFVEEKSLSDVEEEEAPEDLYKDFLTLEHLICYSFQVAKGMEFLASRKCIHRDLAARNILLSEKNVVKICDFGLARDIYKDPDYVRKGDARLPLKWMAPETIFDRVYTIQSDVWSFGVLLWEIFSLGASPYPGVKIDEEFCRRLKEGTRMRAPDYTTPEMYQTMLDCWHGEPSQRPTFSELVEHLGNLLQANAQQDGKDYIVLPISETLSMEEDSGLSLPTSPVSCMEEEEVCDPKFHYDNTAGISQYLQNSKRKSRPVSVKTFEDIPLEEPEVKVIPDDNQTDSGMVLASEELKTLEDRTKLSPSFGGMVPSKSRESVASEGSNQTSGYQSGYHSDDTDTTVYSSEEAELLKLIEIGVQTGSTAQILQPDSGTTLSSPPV
Chain of FGFR-2 (P21802 22-821, species assumed): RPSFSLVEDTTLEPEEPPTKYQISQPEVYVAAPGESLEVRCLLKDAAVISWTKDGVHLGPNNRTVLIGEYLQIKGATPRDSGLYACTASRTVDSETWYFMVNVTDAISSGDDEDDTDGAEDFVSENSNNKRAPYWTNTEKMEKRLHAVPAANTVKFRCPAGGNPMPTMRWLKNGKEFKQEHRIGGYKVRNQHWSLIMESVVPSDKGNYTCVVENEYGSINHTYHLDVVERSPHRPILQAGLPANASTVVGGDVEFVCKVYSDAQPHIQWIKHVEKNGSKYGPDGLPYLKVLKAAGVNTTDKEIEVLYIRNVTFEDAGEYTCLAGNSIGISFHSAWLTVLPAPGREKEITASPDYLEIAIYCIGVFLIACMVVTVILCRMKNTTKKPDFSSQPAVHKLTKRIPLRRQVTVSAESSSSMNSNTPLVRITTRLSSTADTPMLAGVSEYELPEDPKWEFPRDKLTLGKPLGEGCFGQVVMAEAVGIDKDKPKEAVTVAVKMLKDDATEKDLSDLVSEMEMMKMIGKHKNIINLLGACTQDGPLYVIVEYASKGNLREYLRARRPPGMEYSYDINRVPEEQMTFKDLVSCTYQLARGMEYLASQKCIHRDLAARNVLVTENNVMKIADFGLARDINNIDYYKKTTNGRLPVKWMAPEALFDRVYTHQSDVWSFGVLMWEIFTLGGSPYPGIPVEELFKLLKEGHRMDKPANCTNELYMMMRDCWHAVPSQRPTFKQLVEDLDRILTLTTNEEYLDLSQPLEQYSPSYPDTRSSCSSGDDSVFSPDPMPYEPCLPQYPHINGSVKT

Regarding `Cc1cc2c(F)c(Oc3ncnn4cc(OC[C@@H](C)OC(=O)[C@H](C)N)c(C)c34)ccc2[nH]1` [compound 1, [(1R), 2S]-2-Aminopropionic acid 2-[4-(4-fluoro-2-methyl-1H-indol-5-yloxy)-5-methylpyrrolo[2,1-f][1,2,4]triazin-6-yloxy]-1-methylethyl ester], in test [1] (3 probe sets (206576_s_at, 211889_x_at, 209498_at), treatment at 17 days), the CEACAM1 expression result is listed as “significant increase”. Also, the “expression level of RAGE, up-regulated” value in test [1] (human xenograft tissue, 17 days, FDR q=0.002) worked out at 1.9 fold. In test [1] (treatment at 17 days, FDR q<0.008 (FIG. 4)), the AKAP7 inhibited was 3.5 fold. The compound further showed an EMP1 up-regulated in test [1] (tumor tissue, 17 Days, significant FDR q values (FIG. 3)) of 3.9 fold. In test [1] (setting [7]), the FGF-8 levels entry is listed as “elevated”, the FGF-18 levels entry is “elevated”, the FGF-22 levels result was “elevated” and the FGFR-2 levels entry is given as “elevated”. The FGF-2 levels entry in test [1] (tumor xenografts, after 17 days, low expression) is “didn't change much”. Further, in test [1] (setting [8]), the “Expression of Collagen 18” value is reported as “up-regulated”, the VEGF expression entry is “up-regulated” and the VEGFB expression entry is reported as “up-regulated”. Moreover, the “inhibition of VEGFR-2” value in test [2] is reported as “potent inhibition”. In addition, in test [3], the ESM1 level entry is listed as “decreasing trend” and the “expression value of ESM1 in stromal tissue” value is on record as “significantly decreases”. For the same compound, in test [3] (setting [9]), the “expression level of S100A8” value was “up-regulated” and the “expression level of S100A9” value is given as “up-regulated”. In addition, the CD14 expression entry in test [3] (upon treatment, 17 days) is given as “elevated”. Also, in test [4], the “ability to inhibit tumor growth” value is reported as “increase affect on the ability to inhibit tumor growth when compared to bevacizumab”. For the same compound, the “inhibition of FGFR-1” value in test [5] is “inhibition”. Also, the “inhibition of FGFR-2” value in test [6] is “inhibition”.
Regarding “bevacizumab: AVASTIN (bevacizumab), indirectly inhibits the VEGFR-2 signaling pathway by preventing VEGF ligand binding [reference compound]”, in test [3], the ESM1 level result is on record as “decreasing trend” and the “expression value of ESM1 in stromal tissue” value is given as “significantly decreases”.
